Test results taken from ChEMBL document CHEMBL1201862, “PubChem BioAssay data set” (2004).
Blank lines part the entries; values can stand above or below the molecule they belong to. The source made the active and inactive calls.

What was measured:
[1] = biological target: T1, Estrogen receptor beta (Homo sapiens, UniProt Q92731);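 further: recombinant ER-beta bound to coactivator SRC1 peptide in presence of estradiol agonist; inhibitors block coactivator peptide binding and lower the FRET signal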
[2] = biological target: T1, Estrogen receptor beta; assay: blockers of SRC-3 recruitment to ERβ – biochemical, ELISA, streptavidin-HRP readout, orthogonal assay, confirmation (AID 1060)
[3] = biological target: Glyceraldehyde-3-phosphate dehydrogenase (Homo sapiens, UniProt P04406)
[4] = biological target: T2, Caspase-3 (Homo sapiens, UniProt P42574); format: functional;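 further: Dose-response selectivity test against caspase-3 for candidate inhibitors of sentrin-specific proteases (SENPs)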
T2 sequence (P42574 whole entry): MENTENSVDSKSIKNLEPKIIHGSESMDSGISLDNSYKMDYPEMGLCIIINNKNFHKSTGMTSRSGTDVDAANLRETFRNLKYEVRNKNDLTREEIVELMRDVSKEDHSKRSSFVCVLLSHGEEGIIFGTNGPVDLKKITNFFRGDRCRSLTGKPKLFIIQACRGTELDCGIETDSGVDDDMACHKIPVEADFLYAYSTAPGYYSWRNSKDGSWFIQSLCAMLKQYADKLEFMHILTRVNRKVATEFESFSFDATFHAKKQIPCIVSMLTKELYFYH

[5] = biological target: T3, Sentrin-specific protease 7 (Homo sapiens, UniProt Q9BQF6); format: functional;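 further: Luminescence-based dose-response confirmation of ultra-high-throughput screening hits, measuring inhibition of SENP7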
T3 sequence (Q9BQF6 whole entry): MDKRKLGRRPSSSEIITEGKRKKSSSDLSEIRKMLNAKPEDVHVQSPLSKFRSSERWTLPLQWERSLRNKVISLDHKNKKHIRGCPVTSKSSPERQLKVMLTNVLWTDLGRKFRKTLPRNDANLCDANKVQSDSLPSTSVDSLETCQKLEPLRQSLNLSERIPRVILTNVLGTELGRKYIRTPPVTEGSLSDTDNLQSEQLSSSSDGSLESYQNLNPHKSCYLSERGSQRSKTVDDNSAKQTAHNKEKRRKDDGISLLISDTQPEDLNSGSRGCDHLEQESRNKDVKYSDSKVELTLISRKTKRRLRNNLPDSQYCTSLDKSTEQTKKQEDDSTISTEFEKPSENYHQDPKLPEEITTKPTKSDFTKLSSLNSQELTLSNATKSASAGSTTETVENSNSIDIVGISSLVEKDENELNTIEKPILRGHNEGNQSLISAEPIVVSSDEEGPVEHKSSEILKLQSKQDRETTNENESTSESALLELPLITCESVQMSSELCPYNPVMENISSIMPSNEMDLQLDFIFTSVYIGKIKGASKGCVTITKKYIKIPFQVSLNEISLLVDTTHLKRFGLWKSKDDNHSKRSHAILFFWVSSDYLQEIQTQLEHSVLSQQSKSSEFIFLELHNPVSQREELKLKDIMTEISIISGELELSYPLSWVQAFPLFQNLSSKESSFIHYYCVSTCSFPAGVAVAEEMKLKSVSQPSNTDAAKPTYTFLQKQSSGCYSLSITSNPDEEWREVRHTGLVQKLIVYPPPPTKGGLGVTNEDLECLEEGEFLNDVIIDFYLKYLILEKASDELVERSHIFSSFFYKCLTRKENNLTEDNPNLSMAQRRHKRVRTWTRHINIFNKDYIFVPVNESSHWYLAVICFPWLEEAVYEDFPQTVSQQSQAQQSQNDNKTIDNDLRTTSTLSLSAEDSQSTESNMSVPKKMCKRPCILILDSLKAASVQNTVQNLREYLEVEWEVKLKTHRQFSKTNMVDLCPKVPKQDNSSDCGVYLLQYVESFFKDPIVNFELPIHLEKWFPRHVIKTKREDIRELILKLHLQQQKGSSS

[6] = biological target: T4, Sentrin-specific protease 6 (Homo sapiens, UniProt Q9GZR1); format: functional;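 further: Luminescence-based dose-response confirmatory assay of SENP6 inhibition, following up an ultra-high-throughput screen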
T4 sequence (Q9GZR1 whole entry): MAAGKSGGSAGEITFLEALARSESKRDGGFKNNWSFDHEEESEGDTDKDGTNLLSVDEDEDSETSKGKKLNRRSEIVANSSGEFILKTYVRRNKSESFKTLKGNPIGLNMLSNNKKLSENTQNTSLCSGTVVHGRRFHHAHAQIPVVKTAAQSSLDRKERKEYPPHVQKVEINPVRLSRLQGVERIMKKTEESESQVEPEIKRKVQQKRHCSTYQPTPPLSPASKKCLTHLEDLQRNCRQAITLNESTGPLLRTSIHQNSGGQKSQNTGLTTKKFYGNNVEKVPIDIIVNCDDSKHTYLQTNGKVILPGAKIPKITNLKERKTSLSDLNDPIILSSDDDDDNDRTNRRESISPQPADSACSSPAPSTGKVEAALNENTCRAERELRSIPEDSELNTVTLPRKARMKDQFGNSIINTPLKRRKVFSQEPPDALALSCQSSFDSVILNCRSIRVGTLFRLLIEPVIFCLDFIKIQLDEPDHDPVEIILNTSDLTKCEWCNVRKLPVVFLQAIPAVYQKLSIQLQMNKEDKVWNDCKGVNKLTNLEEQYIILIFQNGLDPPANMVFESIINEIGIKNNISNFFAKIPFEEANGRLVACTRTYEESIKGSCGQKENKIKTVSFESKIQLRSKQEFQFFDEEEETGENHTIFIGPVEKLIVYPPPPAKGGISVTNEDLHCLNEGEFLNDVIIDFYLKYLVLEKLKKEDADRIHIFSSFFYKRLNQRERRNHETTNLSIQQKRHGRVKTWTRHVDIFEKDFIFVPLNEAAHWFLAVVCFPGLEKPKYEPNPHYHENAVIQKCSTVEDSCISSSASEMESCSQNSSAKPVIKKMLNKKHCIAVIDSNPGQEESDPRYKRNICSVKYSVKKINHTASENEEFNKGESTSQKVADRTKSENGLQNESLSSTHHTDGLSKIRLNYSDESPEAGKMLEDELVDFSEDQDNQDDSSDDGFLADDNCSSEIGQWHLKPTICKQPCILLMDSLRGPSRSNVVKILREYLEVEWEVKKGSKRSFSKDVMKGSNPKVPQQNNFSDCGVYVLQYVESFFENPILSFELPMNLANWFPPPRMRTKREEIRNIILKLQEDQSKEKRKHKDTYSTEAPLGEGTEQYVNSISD

[7] = biological target: T5, Sentrin-specific protease 8 (Homo sapiens, UniProt Q96LD8); format: functional;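 further: luminescence read-out of SENP8 inhibition, dose-response confirmation following an ultra-high-throughput screen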
T5 sequence (Q96LD8 whole entry): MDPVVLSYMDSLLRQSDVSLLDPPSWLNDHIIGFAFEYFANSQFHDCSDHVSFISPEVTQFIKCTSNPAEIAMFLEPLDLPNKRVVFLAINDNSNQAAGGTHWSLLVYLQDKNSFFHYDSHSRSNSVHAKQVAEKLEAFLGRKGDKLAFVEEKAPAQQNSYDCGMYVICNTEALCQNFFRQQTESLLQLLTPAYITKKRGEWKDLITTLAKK

[8] = biological target: Cytochrome P450 2C19 (Homo sapiens, UniProt P33261); assay: Cytochrome panel assay with activity outcomes. Panel member name: p450-cyp2c19 Compounds with AC50 equal or less than 10 uM are considered active; format: functional; details: read-out: AC50
[9] = biological target: Cytochrome P450 2D6 (Homo sapiens, UniProt P10635);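 further: CYP2D6 member of a cytochrome P450 panel assay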
[10] = biological target: T6, Cytochrome P450 1A2 (Homo sapiens, UniProt P05177);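 further: PubChem cytochrome P450 panel assay, CYP1A2 panel member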
T6 sequence (P05177 whole entry): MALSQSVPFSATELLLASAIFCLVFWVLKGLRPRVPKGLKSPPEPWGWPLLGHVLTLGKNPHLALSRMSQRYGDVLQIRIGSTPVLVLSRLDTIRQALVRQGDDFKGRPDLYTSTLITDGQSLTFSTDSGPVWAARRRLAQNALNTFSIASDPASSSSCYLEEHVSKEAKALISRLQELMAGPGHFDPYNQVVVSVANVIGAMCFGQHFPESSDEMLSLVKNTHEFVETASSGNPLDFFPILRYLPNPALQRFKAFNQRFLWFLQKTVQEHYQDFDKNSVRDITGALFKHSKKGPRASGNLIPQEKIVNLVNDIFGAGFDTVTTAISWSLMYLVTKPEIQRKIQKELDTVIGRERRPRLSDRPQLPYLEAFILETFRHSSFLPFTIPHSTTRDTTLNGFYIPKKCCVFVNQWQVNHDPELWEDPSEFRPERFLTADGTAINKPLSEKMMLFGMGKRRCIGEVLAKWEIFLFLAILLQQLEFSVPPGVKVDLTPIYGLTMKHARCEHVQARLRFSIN

[11] = viability loss in THP-1 monocytes – THP-1 cells, cytotoxicity control for Vif-APOBEC3G degradation inhibitor project, dose response (AID 1117359); format: functional; details: THP-1
[12] = biological target: T7, Carboxy-terminal domain RNA polymerase II polypeptide A small phosphatase 1 (Homo sapiens, UniProt Q9GZU7); assay: CTDSP1 inhibitors, concentration-response, biochemical, absorbance readout, ultra-high-throughput screen actives (AID 540297); format: functional
T7 sequence (Q9GZU7 whole entry): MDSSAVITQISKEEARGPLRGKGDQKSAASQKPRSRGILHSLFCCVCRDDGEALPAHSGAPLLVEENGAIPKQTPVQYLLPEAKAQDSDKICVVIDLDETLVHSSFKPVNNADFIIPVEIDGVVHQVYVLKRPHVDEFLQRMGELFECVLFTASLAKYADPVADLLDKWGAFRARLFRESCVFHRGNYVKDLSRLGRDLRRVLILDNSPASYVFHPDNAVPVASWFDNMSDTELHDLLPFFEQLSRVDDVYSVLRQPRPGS

[13] = biological target: T8, Corticotropin-releasing factor receptor 2/Corticotropin-releasing factor-binding protein (Homo sapiens, UniProt P24387+Q13324); assay: Dose Response confirmation of uHTS hits for small molecule antagonists of the CRF-binding protein and CRF-R2 receptor complex.; format: functional; details: read-out: IC50_Mean
T8 sequence (Q13324 whole entry): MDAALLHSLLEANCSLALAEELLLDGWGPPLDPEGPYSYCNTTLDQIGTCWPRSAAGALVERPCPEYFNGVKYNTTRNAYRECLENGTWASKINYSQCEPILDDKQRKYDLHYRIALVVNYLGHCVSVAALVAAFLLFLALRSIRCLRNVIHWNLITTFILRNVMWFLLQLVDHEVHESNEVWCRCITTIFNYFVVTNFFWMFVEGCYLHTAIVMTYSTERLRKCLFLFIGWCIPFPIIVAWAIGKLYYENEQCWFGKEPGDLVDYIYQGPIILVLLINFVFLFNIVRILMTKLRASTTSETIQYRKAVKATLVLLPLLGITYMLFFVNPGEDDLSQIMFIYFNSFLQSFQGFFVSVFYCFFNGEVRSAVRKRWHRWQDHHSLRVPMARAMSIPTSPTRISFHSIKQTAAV
T8 sequence (P24387 whole entry): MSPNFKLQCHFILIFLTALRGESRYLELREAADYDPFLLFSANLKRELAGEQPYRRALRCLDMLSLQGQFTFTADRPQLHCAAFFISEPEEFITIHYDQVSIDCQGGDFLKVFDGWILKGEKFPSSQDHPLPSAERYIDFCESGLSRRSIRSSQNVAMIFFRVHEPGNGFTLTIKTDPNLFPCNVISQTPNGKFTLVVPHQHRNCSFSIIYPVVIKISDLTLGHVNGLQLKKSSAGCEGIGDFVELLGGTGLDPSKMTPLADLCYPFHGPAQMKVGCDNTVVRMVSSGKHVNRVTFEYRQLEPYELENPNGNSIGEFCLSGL

[14] = biological target: T8, Corticotropin-releasing factor receptor 2/Corticotropin-releasing factor-binding protein; assay: activators of CRF receptor 2 with binding protein – uHTS hits, confirmation (AID 602473); format: functional; details: read-out: EC50_Mean
[15] = system: HEK293; assay: EBV LMP1 TES2 canonical NF-kB signalling blockers – cell-based, HEK293, luciferase, cherry-pick, dose response (AID 588343); format: functional; details: Homo sapiens

T1 sequence (Q92731 whole entry): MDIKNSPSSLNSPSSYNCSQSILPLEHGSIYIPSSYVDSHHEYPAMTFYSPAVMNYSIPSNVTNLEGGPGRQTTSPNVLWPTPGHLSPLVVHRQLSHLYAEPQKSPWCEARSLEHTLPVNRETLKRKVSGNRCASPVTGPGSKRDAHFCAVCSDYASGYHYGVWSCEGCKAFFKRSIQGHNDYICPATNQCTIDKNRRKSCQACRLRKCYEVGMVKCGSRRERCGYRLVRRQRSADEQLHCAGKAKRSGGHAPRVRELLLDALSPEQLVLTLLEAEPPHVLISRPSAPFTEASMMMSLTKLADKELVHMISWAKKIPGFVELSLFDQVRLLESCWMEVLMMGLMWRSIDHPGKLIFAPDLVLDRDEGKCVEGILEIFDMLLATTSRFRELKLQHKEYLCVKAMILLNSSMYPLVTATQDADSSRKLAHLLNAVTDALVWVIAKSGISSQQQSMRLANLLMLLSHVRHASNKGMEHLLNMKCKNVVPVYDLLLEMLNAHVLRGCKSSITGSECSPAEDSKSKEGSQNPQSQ
Sequence of Cytochrome P450 2C19 (P33261 whole entry): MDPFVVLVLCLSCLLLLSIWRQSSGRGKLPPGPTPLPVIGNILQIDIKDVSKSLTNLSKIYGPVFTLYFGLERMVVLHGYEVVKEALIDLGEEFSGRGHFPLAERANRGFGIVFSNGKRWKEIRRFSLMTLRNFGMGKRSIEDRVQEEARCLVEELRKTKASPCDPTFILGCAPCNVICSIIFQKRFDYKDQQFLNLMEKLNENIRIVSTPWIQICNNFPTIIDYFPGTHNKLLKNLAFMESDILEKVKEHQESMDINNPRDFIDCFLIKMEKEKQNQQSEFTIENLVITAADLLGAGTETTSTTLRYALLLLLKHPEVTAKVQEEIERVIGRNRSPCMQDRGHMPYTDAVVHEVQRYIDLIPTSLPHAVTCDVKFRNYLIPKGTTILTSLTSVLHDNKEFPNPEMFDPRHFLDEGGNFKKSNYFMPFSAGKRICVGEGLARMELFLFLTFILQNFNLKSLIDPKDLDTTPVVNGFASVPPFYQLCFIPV
Sequence of Cytochrome P450 2D6 (P10635 whole entry): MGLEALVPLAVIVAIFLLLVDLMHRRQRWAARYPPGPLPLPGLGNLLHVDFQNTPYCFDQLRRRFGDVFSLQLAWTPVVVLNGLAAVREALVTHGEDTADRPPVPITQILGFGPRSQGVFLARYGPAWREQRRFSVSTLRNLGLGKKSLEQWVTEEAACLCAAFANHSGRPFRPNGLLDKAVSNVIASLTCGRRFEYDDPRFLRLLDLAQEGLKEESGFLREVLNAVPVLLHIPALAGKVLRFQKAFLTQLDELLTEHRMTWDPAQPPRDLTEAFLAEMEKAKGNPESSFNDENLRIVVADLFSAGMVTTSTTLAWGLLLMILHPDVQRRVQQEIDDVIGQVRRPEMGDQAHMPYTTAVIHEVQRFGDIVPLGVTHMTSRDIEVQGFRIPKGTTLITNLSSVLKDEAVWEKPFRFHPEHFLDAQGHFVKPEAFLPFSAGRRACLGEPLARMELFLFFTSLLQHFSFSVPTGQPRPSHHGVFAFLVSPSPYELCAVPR
Sequence of Glyceraldehyde-3-phosphate dehydrogenase (P04406 whole entry): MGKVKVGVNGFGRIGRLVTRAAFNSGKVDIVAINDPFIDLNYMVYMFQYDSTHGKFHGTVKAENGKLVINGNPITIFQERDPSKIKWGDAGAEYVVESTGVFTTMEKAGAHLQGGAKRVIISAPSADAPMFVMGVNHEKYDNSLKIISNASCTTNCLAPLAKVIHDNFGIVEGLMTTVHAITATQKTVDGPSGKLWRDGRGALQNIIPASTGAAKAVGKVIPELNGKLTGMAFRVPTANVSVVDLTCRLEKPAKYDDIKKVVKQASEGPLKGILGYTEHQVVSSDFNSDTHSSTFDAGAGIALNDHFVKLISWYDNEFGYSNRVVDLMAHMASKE

SMILES: O=C1C(Cl)=C(N2CCN(Cc3ccc4c(c3)OCO4)CC2)C(=O)N1c1ccnc(Cl)c1
IC50 [3]: > 50 µM (inconclusive)

SMILES: Cc1ccccc1/C=C\c1nc(O)c2ccccc2n1
IC50 [4]: 3.24 µM (active)
IC50 [5]: 2.16 µM (active)
IC50 [6]: 2.74 µM (active)
IC50 [7]: 2.64 µM (active)

SMILES: COc1ccc(S(=O)(=O)N2CCN(C(=O)c3cc(-c4ccccc4OC)[nH]n3)CC2)cc1
CC50 [11]: > 40 µM (active)

SMILES: COCCn1c(C)cc(C(=O)COC(=O)c2cc3c(s2)CCC3)c1C
IC50 [1]: > 50 µM (not active)
IC50 [2]: 14.9 µM (active)
IC50 [12]: 7.35 µM (active)
IC50 [13]: > 47.1 µM (inactive)
EC50 [14]: > 53 µM (inactive)

SMILES: Cc1cc(C(=O)COC(=O)c2cccc(NS(C)(=O)=O)c2)c(C)n1CC1CCCO1 (stereo unspecified)
AC50 [15]: 3.15 µM (active)

Continued, in another order:

IC50 [1]: 9.84 µM (active)
IC50 [2]: 0.0637 µM (not active)
SMILES: CCOc1ccc2nc(NC(=O)CCC(=O)c3cccs3)sc2c1

IC50 [4]: 71.1 µM (active)
IC50 [5]: 2.97 µM (active)
IC50 [6]: 17.2 µM (active)
AC50 [8]: 35.5 µM (inconclusive)
AC50 [9]: 28.2 µM (inconclusive)
AC50 [10]: 31.6 µM (inconclusive)
SMILES: C/C(=N\OC(=O)c1ccccc1F)c1nccs1
IC50 [7]: 62.9 µM (active)
